The record followed here is patent publication US20250332149A1, “PIPERIDINE COMPOUNDS AND PHARMACEUTICAL COMPOSITIONS” (Lumos Pharma, Inc., priority 2024, published 2025).

SMILES strings stand for the structures.

One assay relates to serum IGF-1. Briefly: Phase 1 study Part 2: PD, serum IGF-1 concentration fasted vs fed. The class given is in vivo, human. The method, then: The serum IGF-1 concentration values remained stable over the sampling time interval post dose. At pre-dose, mean (SD) serum […] concentration values were 209.2 (54.28) ng/mL for Treatment A and 188.8 (26.11) ng/mL for Treatment B. At 24 h post-dose, the serum GH concentration value peaked at 244.7 (37.66) ng/mL in Treatment A and 220.8 (43.50) ng/mL in Treatment B.

Assay [1] concerns serum growth hormone (GH). Briefly: Phase 1 study Part 2: PD, serum GH concentration fasted vs fed. The class given is in vivo, human. Conditions: for serum GH concentration, mean (SD): pre-dose. From the text:
• Part 1: To evaluate PD (GH response) of the new LUM-201 formulation as capsule (test). • Part 2: To measure PD (GH response) to LUM-201 administered as capsule (test) in fasted versus fed state. PD Results (pt 2): Following the administration of LUM-201, the serum GH concentration values increased post dose. At pre-dose, mean (SD) serum GH concentration values were 0.2121 (0.2192) ng/mL in Treatment A and 0.1088 (0.09518) ng/mL in Treatment B. The serum GH concentration value peaked at 22.18 (22.24) ng/mL in Treatment A at 1 h post-dose and 14.10 (13.48) ng/mL in Treatment B at 1.5 h post-dose. The serum GH concentration values in Treatment A were consistently higher compared to Treatment B over time and approached the peak concentration sooner at 1 h post-dose.

[2] abbreviates: Part 2, Treatment A (fasted state) and Treatment B (fed state).

For the molecule `CC(C)(N)C(=O)N[C@H](COCc1ccccc1)C(=O)N1CCC2(CC1)CN(S(C)(=O)=O)c1ccccc12` [LUM-201, N-[1(R)-[(1,2-dihydro-1-methanesulfonylspiro[3H-indole-3,4′-piperdin]-yl)carbonyl]-2-(phenylmethyloxy)ethyl]-2-amino-2-methylpropanamide methanesulfonate], the “serum IGF-1 concentration” value is given as 244.7 (37.66) ng/mL in the assay with serum IGF-1 (24 h post-dose, Part 2, Treatment A: 85.3 mg capsule, fasted); 220.8 (43.50) ng/mL with serum IGF-1 (24 h post-dose, Part 2, Treatment B: 85.3 mg capsule after high-fat meal); 209.2 (54.28) ng/mL with serum IGF-1 (pre-dose, Part 2, Treatment A: 85.3 mg capsule, fasted); 188.8 (26.11) ng/mL in the assay on serum IGF-1 (pre-dose, Part 2, Treatment B: 85.3 mg capsule after high-fat meal). Further, the “serum IGF-1 concentration values and trend, fasted vs fed” value with serum IGF-1 (setting [2]) is on record as “comparable”. The “serum GH concentration, peak, mean (SD)” value in assay [1] (1 h post-dose, Part 2, Treatment A: 85.3 mg capsule, fasted) is recorded as 22.18 (22.24) ng/mL; in assay [1] (1.5 h post-dose, Part 2, Treatment B: 85.3 mg capsule after high-fat meal), 14.10 (13.48) ng/mL. In addition, the “serum GH concentrations 1.5 hours after administration, fasted vs fed” value in assay [1] (setting [2]) is reported as “comparable”. The “serum GH concentration, mean (SD)” value in assay [1] (Part 2, Treatment A: 85.3 mg capsule, fasted) is listed as 0.2121 (0.2192) ng/mL; in assay [1] (Part 2, Treatment B: 85.3 mg capsule after high-fat meal), 0.1088 (0.09518) ng/mL.
